Measurements reported in article PMC4882237 (Journal of medicinal chemistry, 2016).
“Also recorded” adds a separate entry of the source.

Experiments:
cytochromes P450 (CYPs) = test: Inhibition of human cytochromes P450, overall; settings: result in words
[1] = Metabolic stability in human liver microsomes; assay type: in vitro ADME
Caco-2 = Caco-2 permeability; assay type: in vitro ADME; settings: result in words

binding to / inhibition of cytochromes P450 (CYPs) (cytochromes P450 (CYPs)): minimal; also recorded: very poor
half-life in human liver microsomes ([1]; 1 μM concentration): > 1 h
human microsome CYP metabolism ([1]; for at least 60 min, result in words): little or no
metabolic stability in human liver microsomes ([1]; result in words): good
SMILES: CNCCCc1cncc(CCc2cc(C)cc(N)n2)c1 [Compound 14j, 4-Methyl-6-(2-(5-(3-(methylamino)propyl)pyridin-3-yl)ethyl)pyridin-2-amine]
Caco-2 permeability (Caco-2): little to no; also recorded: little or no
